These results are taken from PMC11339948 (Chemical Science, 2024).

In the assay the target is full-length TDP1 (Homo sapiens, UniProt Q9NUW8). Description: FRET-based TDP1 enzymatic activity inhibition assay. In kind it is biochemical.

Bridge positions count the residues as written; N and C are the ends. Square brackets hold non-standard residues; d marks the D form. Ends that are not written are not given here. pGlu = O=C1CC[C@@H](C(=O)O)N1

Sequence of full-length TDP1 (Q9NUW8 whole entry): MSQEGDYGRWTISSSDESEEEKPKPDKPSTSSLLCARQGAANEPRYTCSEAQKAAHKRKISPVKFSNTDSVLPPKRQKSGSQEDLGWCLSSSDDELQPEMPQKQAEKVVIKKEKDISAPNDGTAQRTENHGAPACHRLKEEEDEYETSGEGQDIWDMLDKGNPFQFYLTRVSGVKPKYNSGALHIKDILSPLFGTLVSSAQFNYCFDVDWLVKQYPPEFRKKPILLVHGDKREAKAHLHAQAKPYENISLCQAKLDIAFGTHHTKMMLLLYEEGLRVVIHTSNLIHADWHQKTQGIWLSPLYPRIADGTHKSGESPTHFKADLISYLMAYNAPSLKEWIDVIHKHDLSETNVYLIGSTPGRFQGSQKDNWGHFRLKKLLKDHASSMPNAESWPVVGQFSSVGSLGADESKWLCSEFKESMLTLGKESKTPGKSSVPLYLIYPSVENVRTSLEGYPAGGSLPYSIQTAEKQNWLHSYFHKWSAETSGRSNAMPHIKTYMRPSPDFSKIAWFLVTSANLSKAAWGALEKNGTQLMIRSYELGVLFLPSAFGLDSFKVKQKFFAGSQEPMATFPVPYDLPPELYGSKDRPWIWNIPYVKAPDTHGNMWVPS

The substance “[pGlu]EAFCYSDRFCQNYIGSIPDCCFGRGSYSFELQPPPWECYQC (disulfide 5-21, 11-39, 22-42) [Native recifin A, recifin A]” had an IC50 of 800 nM. In the case of “[pGlu]EAFCYSDRFCQNYIGSIPDCCFGRGSYSFELQPPPWECYQC (disulfide 5-21, 11-39, 22-42) [Synthetic recifin A, recifin A]” it was 580 nM.
